Broadly, the pKd is the negative decadic logarithm of the Kd, by convention in mol/L.

The results in this text go back to paper PMC9320910, “Inhibition of Microtubule Affinity Regulating Kinase 4 by Metformin: Exploring the Neuroprotective Potential of Antidiabetic Drug through Spectroscopic and Computational Approaches” (Molecules, 2022).

Each structure is given as a SMILES string. pKd: −log10 of the molar value.

This experiment has as its target T1, Microtubule affinity regulating kinase 4 (MARK4) (Homo sapiens, UniProt Q96L34).
T1 sequence (Q96L34 1-752): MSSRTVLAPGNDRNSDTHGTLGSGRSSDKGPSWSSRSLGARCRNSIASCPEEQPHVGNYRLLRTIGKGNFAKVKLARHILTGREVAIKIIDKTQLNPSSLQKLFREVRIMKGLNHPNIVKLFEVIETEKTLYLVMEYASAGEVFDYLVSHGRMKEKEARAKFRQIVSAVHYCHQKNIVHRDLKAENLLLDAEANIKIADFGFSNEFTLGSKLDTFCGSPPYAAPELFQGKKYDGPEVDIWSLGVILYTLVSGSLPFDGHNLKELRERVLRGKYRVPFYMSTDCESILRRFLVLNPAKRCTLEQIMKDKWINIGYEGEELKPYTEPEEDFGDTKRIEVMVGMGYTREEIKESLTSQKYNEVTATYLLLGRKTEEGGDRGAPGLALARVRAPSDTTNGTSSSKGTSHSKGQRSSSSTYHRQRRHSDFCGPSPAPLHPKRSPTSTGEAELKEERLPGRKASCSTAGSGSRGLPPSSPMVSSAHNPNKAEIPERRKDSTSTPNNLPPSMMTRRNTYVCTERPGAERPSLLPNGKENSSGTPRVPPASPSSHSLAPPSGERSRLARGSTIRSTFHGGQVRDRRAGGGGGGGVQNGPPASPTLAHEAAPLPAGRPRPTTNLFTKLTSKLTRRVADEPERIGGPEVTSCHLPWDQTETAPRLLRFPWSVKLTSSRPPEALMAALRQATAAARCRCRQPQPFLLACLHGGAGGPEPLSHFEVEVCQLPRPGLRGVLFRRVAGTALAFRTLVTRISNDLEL
The experiment is described as follows: intrinsic fluorescence quenching (modified Stern-Volmer); supported by malachite green ATPase assay of MARK4 (IC50 =[…]). The class given is binding.

The molecule `CN(C)C(=N)N=C(N)N` [Mtf, N,N-dimethylbiguanide] had a pKd of 5.78.
